Where only a bound is given, the exact number is not on record here.

Assay [1] has as its system human cervical tumor cell line HeLa (ATCC CCL-2). Briefly: SAC-Formation - Paclitaxel-Induced Assay. Type of assay: cell-based. The conditions noted are these: Homo sapiens, HeLa, 24 h, HeLa cells, paclitaxel 0.05 μM, test range 0.005 μM-20 μM, read-out: IC50 [mol/l] SAC-Formation - Paclitaxel-Induced Assay. The method, boiled down: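 HeLa cells incubated overnight at 37° C, then given paclitaxel (0.05 μM final) plus test compound (0.005–20 μM, 0.5% DMSO) together for 24 h at 37° C. Fixed cells stained for phospho-histone H3 Ser10 (mitotic cells) and Hoechst 33342 (cell count); imaging-derived mitotic index fitted by four-parameter Hill equation.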

The target of another assay is T1, CDK2/CycE (Homo sapiens, UniProt P24941).
T1 construct: GST; purchased ProQinase GmbH (Freiburg, Germany); host or cells: insect cells (Sf9)
The assay can be described thus: CDK2/CycE kinase assay (TR-FRET). Type of assay: biochemical. The conditions noted are these: avg, read-out: CDK2 avg (IC50 [mol/l]). The method, boiled down: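 GST-tagged human CDK2 and CycE from Sf9 cells, preincubated 15 min with compound, then 25 min at 22° C. with 10 μM ATP and 0.75 μM biotinylated Rb-derived peptide (final). Phospho-substrate read by TR-FRET (anti-pRB pSer807/pSer811, Eu anti-mouse IgG, streptavidin-XL665), 665/620 nm ratio, normalised to no-inhibitor and no-enzyme controls.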
In general terms: Time-resolved FRET reads energy transfer from a long-lived donor to a nearby acceptor.

As to `Cc1nsc(Nc2cnc(C(F)(F)F)cn2)c1C(=O)Nc1ccc(OCC2CCN(CCC(F)(F)F)CC2)nc1` [Example 347, 3-methyl-5-{[5-(trifluoromethyl)pyrazin-2-yl]amino}-N-(6-{[1-(3,3,3-trifluoropropyl)piperidin-4-yl]methoxy}pyridin-3-yl)-1,2-thiazole-4-carboxamide], the IC50 in assay [1] is 0.064 µM; on CDK2/CycE, not below 20 µM.
The like results for `Cc1nsc(Nc2cc(C#N)ccn2)c1C(=O)Nc1ccc(OC2CCCN(C(=O)OC(C)(C)C)C2)nc1` (centres unmarked) [Example 34, tert-Butyl 3({5-[({5-[(4-cyanopyridin-2-yl)amino]-3-methyl-1,2-thiazol-4-yl}-carbonyl)amino]pyridin-2-yl}oxy)piperidine-1-carboxylate] were, in that order, 0.99 µM and not below 20 µM.
For the compound `Cc1nsc(Nc2cnc(C(F)(F)F)cn2)c1C(=O)Nc1ccc(O[C@H]2CCCN(CC(F)(F)F)C2)nc1` [Example 389, 3-methyl-N-(6-{[(3S)-1-(2,2,2-trifluoroethyl)piperidin-3-yl]oxy}pyridin-3-yl)-5-{[5-(trifluoromethyl)pyrazin-2-yl]amino}-1,2-thiazole-4-carboxamide], the IC50 is 0.16 µM in assay [1] and more than 20 µM on CDK2/CycE.
In the case of `Cc1nsc(Nc2cnc(C(F)(F)F)cn2)c1C(=O)Nc1ccc(N2CCN(CC(F)F)CC2)nc1` [Example 359, N-{6-[4-(2,2-difluoroethyl)piperazin-1-yl]pyridin-3-yl}-3-methyl-5-{[5-(trifluoromethyl)pyrazin-2-yl]amino}-1,2-thiazole-4-carboxamide], the IC50 in assay [1] was 0.11 µM; at CDK2/CycE it was more than 20 µM.
The like results for `CCN1CC[C@H](Oc2ccc(NC(=O)c3c(C)nsc3Nc3cnc(C(F)(F)F)cn3)cn2)[C@@H](F)C1` [Example 365, N-(6-{[(3S,4S)-1-ethyl-3-fluoropiperidin-4-yl]oxy}pyridin-3-yl)-3-methyl-5-{[5-(trifluoromethyl)pyrazin-2-yl]amino}-1,2-thiazole-4-carboxamide] were, in that order, 0.15 µM and more than 20 µM.
`Cc1nsc(Nc2cnc(C(F)(F)F)cn2)c1C(=O)Nc1ccc(N2CCN(CCC(F)(F)F)CC2)nc1` [Example 361, 3-methyl-5-{[5-(trifluoromethyl)pyrazin-2-yl]amino}-N-{6-[4-(3,3,3-trifluoropropyl)piperazin-1-yl]pyridin-3-yl}-1,2-thiazole-4-carboxamide]: the values for the IC50 (in assay [1]; at CDK2/CycE) were 0.12 µM and more than 20 µM, respectively.
On to `Cc1nsc(Nc2cnc(C(F)(F)F)cn2)c1C(=O)Nc1ccc(F)c(OCC2CCCN(CCC(F)(F)F)C2)c1` (centres unmarked) [Example 338, N-(4-fluoro-3-{[1-(3,3,3-trifluoropropyl)piperidin-3-yl]methoxy}phenyl)-3-methyl-5-{[5-(trifluoromethyl)pyrazin-2-yl]amino}-1,2-thiazole-4-carboxamide], for which the values for the IC50 (in assay [1]; at CDK2/CycE) were 0.079 µM and not below 20 µM, respectively.
For `Cc1nsc(Nc2cnc(C(F)(F)F)cn2)c1C(=O)Nc1ccc(OCCNCCC(F)(F)F)nc1` [Example 323, 3-methyl-5-{[5-(trifluoromethyl)pyrazin-2-yl]amino}-N-(6-{2-[(3,3,3-trifluoropropyl)amino]ethoxy}pyridin-3-yl)-1,2-thiazole-4-carboxamide], in that order: 0.8 µM and not below 20 µM.
The like results for `Cc1nsc(Nc2cnc(C(F)(F)F)cn2)c1C(=O)Nc1ccc(O[C@H]2CCN(CC(F)(F)F)C2)nc1` [Example 383, 3-methyl-N-(6-{[(3S)-1-(2,2,2-trifluoroethyl)pyrrolidin-3-yl]oxy}pyridin-3-yl)-5-{[5-(trifluoromethyl)pyrazin-2-yl]amino}-1,2-thiazole-4-carboxamide] were, in that order, 0.027 µM and more than 20 µM.
The like results for `CCN1CC[C@@H](Oc2ccc(NC(=O)c3c(C)nsc3Nc3cnc(C(F)(F)F)cn3)cn2)[C@H](F)C1` [Example 369, N-(6-{[(3R,4R)-1-ethyl-3-fluoropiperidin-4-yl]oxy}pyridin-3-yl)-3-methyl-5-{[5-(trifluoromethyl)pyrazin-2-yl]amino}-1,2-thiazole-4-carboxamide] were, in that order, 0.15 µM and more than 20 µM.
Take `Cc1nsc(Nc2cnc(C(F)(F)F)cn2)c1C(=O)Nc1ccc(F)c(OC[C@H]2CCN(CC(F)(F)F)C2)c1` [Example 398, N-(4-fluoro-3-{[(3S)-1-(2,2,2-trifluoroethyl)pyrrolidin-3-yl]methoxy}phenyl)-3-methyl-5-{[5-(trifluoromethyl)pyrazin-2-yl]amino}-1,2-thiazole-4-carboxamide]: the IC50 was 0.056 µM in assay [1] and more than 20 µM at CDK2/CycE.
Turning to `Cc1nsc(Nc2cnc(C(F)(F)F)cn2)c1C(=O)Nc1ccc(O[C@H]2CCN(CC(F)F)C2)nc1` [Example 382, N-(6-{[(3S)-1-(2,2-difluoroethyl)pyrrolidin-3-yl]oxy}pyridin-3-yl)-3-methyl-5-{[5-(trifluoromethyl)pyrazin-2-yl]amino}-1,2-thiazole-4-carboxamide], the IC50 in assay [1] was 0.045 µM; on CDK2/CycE, more than 20 µM.
For `Cc1nsc(Nc2cnc(C(F)(F)F)cn2)c1C(=O)Nc1ccc(OCCN(C)CCF)nc1` [Example 348, N-(6-{2-[(2-fluoroethyl)(methyl)amino]ethoxy}pyridin-3-yl)-3-methyl-5-{[5-(trifluoromethyl)pyrazin-2-yl]amino}-1,2-thiazole-4-carboxamide], in that order: 0.52 µM and not below 20 µM.

(Values after patent US20170334899A1, “AMINO-SUBSTITUTED ISOTHIAZOLES” (Bayer Pharma Aktiengesellschaft, priority 2014, published 2017).)
